Drawing on patent US20240261292A1, “COMBINATION THERAPIES” (Janssen Pharmaceutica NV, priority 2021, published 2024), this text covers IC50 and microsomal CLint for 2 compounds.

One data set relates to KO-52 cells. As to the kind of experiment: Proliferation assay (spheroid), KO-52 control cell line. The data set is classed as cell-based. As to conditions: Homo sapiens, 8 days, read-out: spheroid assay_OneTime KO-52 IC50. The protocol: (§1) The anti-proliferative effect of menin/MLL protein/protein interaction inhibitor test compounds was assessed inhuman leukemia cell lines. The cell line MOLM-14 harbors a MLL translocation and expresses the MLL fusion protein MLL-AF9, respectively, as well as the wildtype protein from the second allele. OCI-AML3 cells that carry the NPM1c gene mutation were also tested. […] KO-52 was used as a control cell line containing two MLL (KMT2A) wildtype alleles in order to exclude compounds that display general cytotoxic effects.
(§2) KO-52 and OCI-AML3 cell lines were propagated in alpha-MEM (Sigma Aldrich) supplemented with 20% heat-inactivated fetal bovine serum (HyClone), 2 mM L-glutamine (Sigma Aldrich) and 50 μg/ml gentamycin (Gibco).
In order to assess the anti-proliferative effects, 200 MOLM-14 cells, 200 OCI-AML3 cells or 300 KO-52 cells were seeded in 200 μl media per well in 96-well round bottom, ultra-low attachment plates (Costar, catalogue number 7007). […] Spheroid like growth was measured in real-time by live-cell imaging (IncuCyteZOOM, Essenbio, 4× objective) acquiring images at day 8. Confluence (%) as a measure of spheroid size was determined using an integrated analysis tool.
In order to determine the effect of the test compounds over time, the confluence in each well as a measure of spheroid size, was calculated. […]

Data set [1] is described as follows: Metabolic stability in mouse liver microsomes. The data set is classed as in vitro ADME. As to conditions: pH 7.4, 0.5 mg/mL microsomes protein, read-out: Mouse LM Clint. As for the experimental part: 4) Metabolic Stability in Human/Mouse Liver Microsomes
The objective of this study is to measure in vitro metabolic stability of test compound(s) in human and mouse liver microsomes and provide quantitative information on the rate of metabolic turnover (i.e., determination of the apparent intrinsic clearance of test).
Test items were prepared at a stock concentration of 10 mM in DMSO. For determination of metabolic turnover, a final working solution was prepared by adding 2 μL of 10 mM DMSO stock solution for test compound or positive control compounds to 198 μL of acetonitrile (100 μM final concentration).
Incubations were performed as follows: First, liver microsomes were thawed on ice and a master solution containing liver microsomes in 100 mM PBS (phosphate-buffered saline) at pH 7.4 is prepared. Next, the liver microsomes solution was added to the incubation plates and 10 mM NADPH (Nicotinamide-adenine dinucleotide phosphate) was added (MW: 833.4 g/mol; Roche Diagnostics GmbH1, Germany. Dissolved in phosphate buffer (100 mmol/L, pH 7.4)). The mixture was mixed for 10 seconds and pre-warmed in the incubation plate at 37° C. for 10 minutes. The metabolic reaction was initiated with the addition of 5 μL of the 100 μM working solution for test compound or positive control compounds to incubation plate (final test item concentration=1 μM). The reaction final mixture should contain 1 mM NADPH, 0.5 mg/mL microsomes protein and 1 μM test compound or positive control compound in 100 mM PBS at pH 7.4. The percentage of organic solvent in incubation mixture is 1% with DMSO 0.02%.
The reaction was quenched by transferring 50 μL of the incubated mixture at selected time points into the quenching plate containing 200 μL of cold methanol. […]
All calculations were carried out using Microsoft Excel. The slope value, k, was determined by linear regression of the natural logarithm of the remaining percentage of the parent drug vs. incubation time curve.
The in vitro half-life (in vitro t1/2) was determined from the slope value: […]
For orientation: Microsomes from liver hold many membrane-bound enzymes, among them those of drug oxidation.

In the next data set the test system is OCI-AML3 cells. As to the kind of experiment: Proliferation assay (spheroid), OCI-AML3. In kind it is cell-based, human. As to conditions: Homo sapiens, OCI-AML-3, […], 8 days. The protocol: as §1, §2
In order to assess the anti-proliferative effects, 200 MOLM-14 cells, 200 OCI-AML3 cells or 300 KO-52 cells were seeded in 200 μl media per well in 96-well round bottom, ultra-low attachment plates (Costar, catalogue number 7007). Cell seeding numbers were chosen based on growth curves to ensure linear growth throughout the experiment. Test compounds were added at different concentrations and the DMSO content was normalized to 0.3%. Cells were incubated for 8 days at 37° C. and 5% CO2. Spheroid like growth was measured in real-time by live-cell imaging (IncuCyteZOOM, Essenbio, 4× objective) acquiring images at day 8. Confluence (%) as a measure of spheroid size was determined using an integrated analysis tool.
In order to determine the effect of the test compounds over time, the confluence in each well as a measure of spheroid size, was calculated. Confluence of the highest dose of a reference compound was used as baseline for the LC (Low control) and the confluence of DMSO treated cells was used as 0% cytotoxicity (High Control, HC).
HC=High Control: Mean confluence (%) (DMSO treated cells);
Dose-response equation was used for the plot of % Effect vs Log10 compound concentration with a variable slope and fixing the maximum to 100% and the minimum to 0%. 2b) MEIS1 mRNA Expression Assay

Each structure is given as a SMILES string. Counter-ions that a name gives are not always drawn. Like-named read-outs stand apart in the source and are kept apart here.

For `CCN(C(=O)c1cc(F)ccc1Oc1nncnc1N1CCC2(C1)CN([C@H](CCCNCCOC)C(C)C)C2)C(C)C` [Compound 11, (R)-N-ethyl-5-fluoro-N-isopropyl-2-((5-(2-(6-((2-methoxyethyl)amino)-2-methylhexan-3-yl)-2,6-diazaspiro[3.4]octan-6-yl)-1,2,4-triazin-6-yl)oxy)benzamide], the results for the IC50 in the data set on KO-52 cells and in the data set with OCI-AML3 cells were 8.38 µM and 0.21 µM, respectively. In addition, in data set [1] (liver microsomes), the microsomal CLint at 1 μM is less than 7.5 µL/min/mg.
With `CCN(C(=O)c1cc(F)ccc1Oc1nncnc1N1CCC2(C1)CN([C@H](CCCN(C)CCOC)C(C)C)C2)C(C)C` [Compound A3, (R)-N-ethyl-5-fluoro-N-isopropyl-2-((5-(2-(6-((2-methoxyethyl) (methyl)amino)-2-methylhexan-3-yl)-2,6-diazaspiro[3.4]octan-6-yl)-1,2,4-triazin-6-yl)oxy) benzamide oxalate], the IC50 came to 7.75 µM in the data set on KO-52 cells and 0.12 µM in the data set with OCI-AML3 cells. In data set [1] (mouse liver microsomes), the microsomal CLint at 1 μM is less than 7.5 µL/min/mg.

For orientation: IC50 means the concentration needed to halve the response being measured.
